Laboratory results: ChEMBL document CHEMBL2440076, “New triarylpyrazoles as broad-spectrum anticancer agents: design, synthesis, and biological evaluation” (Eur J Med Chem, 2013)

How the values were obtained:
[1] = tested on: SN12C; assay: Growth inhibition of human SN12C cells assessed as cell growth at 10 uM after 48 hrs by sulforhodamine B assay; type: functional; conditions: read-out: Activity
[2] = tested on: UACC-62; assay: Growth inhibition of human UACC62 cells after 48 hrs by sulforhodamine B assay; type: functional; conditions: UACC-62, 48 h
[3] = tested on: MDA-MB-435; assay: Growth inhibition of human MDA-MB-435 cells assessed as cell growth at 10 uM after 48 hrs by sulforhodamine B assay; type: functional; conditions: MDA-MB-435, 48 h, read-out: Activity
[4] = tested on: HCT-116; assay: Growth inhibition of human HCT116 cells after 48 hrs by sulforhodamine B assay; type: functional; conditions: HCT-116, 48 h; for CC50: read-out: LC50 (the source's name)
[5] = tested on: SK-MEL-28; assay: Growth inhibition of human SK-MEL-28 cells assessed as cell growth at 10 uM after 48 hrs by sulforhodamine B assay; type: functional; conditions: SK-MEL-28, 48 h, read-out: Activity
[6] = tested on: 786-0; assay: Growth inhibition of human 786-0 cells assessed as cell growth at 10 uM after 48 hrs by sulforhodamine B assay; type: functional; conditions: 786-0, 48 h, read-out: Activity
[7] = tested on: BT-549; assay: Growth inhibition of human BT549 cells after 48 hrs by sulforhodamine B assay; type: functional; conditions: BT-549, 48 h
[8] = tested on: SW-620; assay: Growth inhibition of human SW620 cells assessed as cell growth at 10 uM after 48 hrs by sulforhodamine B assay; type: functional; conditions: SW-620, 48 h, read-out: Activity
[9] = tested on: SW-620; assay: Growth inhibition of human SW620 cells after 48 hrs by sulforhodamine B assay; type: functional; conditions: SW-620, 48 h; for CC50: read-out: LC50 (the source's name)
[10] = tested on: A498; assay: Growth inhibition of human A498 cells after 48 hrs by sulforhodamine B assay; type: functional, cell-based; conditions: A498, 48 h; for CC50: read-out: LC50 (the source's name)
[11] = tested on: KM12; assay: Growth inhibition of human KM12 cells assessed as cell growth at 10 uM after 48 hrs by sulforhodamine B assay; type: functional; conditions: KM12, 48 h, read-out: Activity
[12] = tested on: MOLT-4; assay: Growth inhibition of human MOLT4 cells assessed as cell growth at 10 uM after 48 hrs by sulforhodamine B assay; type: functional; conditions: MOLT-4, 48 h, read-out: Activity
[13] = tested on: SF-539; assay: Growth inhibition of human SF539 cells after 48 hrs by sulforhodamine B assay; type: functional; conditions: SF-539, 48 h
[14] = tested on: ACHN; assay: Growth inhibition of human ACHN cells assessed as cell growth at 10 uM after 48 hrs by sulforhodamine B assay; type: functional; conditions: read-out: Activity
[15] = tested on: SF-295; assay: Growth inhibition of human SF295 cells after 48 hrs by sulforhodamine B assay; type: functional, cell-based; conditions: SF-295, 48 h; for CC50: read-out: LC50 (the source's name)
[16] = tested on: ACHN; assay: Growth inhibition of human ACHN cells after 48 hrs by sulforhodamine B assay; type: functional; conditions: for CC50: read-out: LC50 (the source's name)
[17] = tested on: NCI-H226; assay: Growth inhibition of human NCI-H226 cells assessed as cell growth at 10 uM after 48 hrs by sulforhodamine B assay; type: functional; conditions: NCI-H226, 48 h, read-out: Activity
[18] = tested on: UACC-62; assay: Growth inhibition of human UACC62 cells assessed as cell growth at 10 uM after 48 hrs by sulforhodamine B assay; type: functional; conditions: UACC-62, 48 h, read-out: Activity
[19] = tested on: NCI-H522; assay: Growth inhibition of human NCI-H522 cells after 48 hrs by sulforhodamine B assay; type: functional; conditions: NCI-H522, 48 h
[20] = tested on: BT-549; assay: Growth inhibition of human BT549 cells assessed as cell growth at 10 uM after 48 hrs by sulforhodamine B assay; type: functional; conditions: BT-549, 48 h, read-out: Activity
[21] = tested on: SF-539; assay: Growth inhibition of human SF539 cells assessed as cell growth at 10 uM after 48 hrs by sulforhodamine B assay; type: functional; conditions: SF-539, 48 h, read-out: Activity
[22] = tested on: COLO 205; assay: Growth inhibition of human COLO205 cells after 48 hrs by sulforhodamine B assay; type: functional; conditions: COLO 205, 48 h
[23] = tested on: RPMI-8226; assay: Growth inhibition of human RPMI8226 cells assessed as cell growth at 10 uM after 48 hrs by sulforhodamine B assay; type: functional; conditions: RPMI-8226, 48 h, read-out: Activity
[24] = tested on: UACC-257; assay: Growth inhibition of human UACC257 cells after 48 hrs by sulforhodamine B assay; type: functional; conditions: UACC-257, 48 h; for CC50: read-out: LC50 (the source's name)
[25] = tested on: RXF 393; assay: Growth inhibition of human RXF393 cells after 48 hrs by sulforhodamine B assay; type: functional; conditions: RXF 393, 48 h
[26] = tested on: A498; assay: Growth inhibition of human A498 cells assessed as cell growth at 10 uM after 48 hrs by sulforhodamine B assay; type: functional; conditions: A498, 48 h, read-out: Activity
[27] = tested on: CAKI-1; assay: Growth inhibition of human CAKI-1 cells assessed as cell growth at 10 uM after 48 hrs by sulforhodamine B assay; type: functional; conditions: CAKI-1, 48 h, read-out: Activity
[28] = tested on: SK-MEL-28; assay: Growth inhibition of human SK-MEL-28 cells after 48 hrs by sulforhodamine B assay; type: functional; conditions: SK-MEL-28, 48 h
[29] = tested on: UACC-257; assay: Growth inhibition of human UACC257 cells assessed as cell growth at 10 uM after 48 hrs by sulforhodamine B assay; type: functional; conditions: UACC-257, 48 h, read-out: Activity
[30] = Growth inhibition of human HCC2998 cells after 48 hrs by sulforhodamine B assay; type: functional; conditions: HCC 2998, 48 h; for CC50: read-out: LC50 (the source's name)
[31] = tested on: DU-145; assay: Growth inhibition of human DU145 cells assessed as cell growth at 10 uM after 48 hrs by sulforhodamine B assay; type: functional; conditions: DU-145, 48 h, read-out: Activity
[32] = tested on: IGROV-1; assay: Growth inhibition of human IGROV1 cells after 48 hrs by sulforhodamine B assay; type: functional; conditions: IGROV-1, 48 h
[33] = tested on: NCI-H322M; assay: Growth inhibition of human NCI-H322M cells assessed as cell growth at 10 uM after 48 hrs by sulforhodamine B assay; type: functional; conditions: read-out: Activity
[34] = tested on: MCF7; assay: Growth inhibition of human MCF7 cells assessed as cell growth at 10 uM after 48 hrs by sulforhodamine B assay; type: functional; conditions: MCF7, 48 h, read-out: Activity

Q: Which results are given for `O=C(Nc1cccc(-n2cc(-c3ccncc3)c(-c3ccc(Cl)c(O)c3)n2)c1)Nc1cc(C(F)(F)F)cc(C(F)(F)F)c1`?
A: growth at 10 µM [1]: -36.1%; GI50 [2]: 749 nM; LC50 (50% lethal concentration) [2]: 8.46 µM; TGI [2]: 2.19 µM; growth at 10 µM [3]: -31.1%; GI50 [4]: 428 nM; TGI [4]: 1110 nM; CC50 [4]: 2650 nM; growth at 10 µM [5]: -62.4%; growth at 10 µM [6]: -46.8%; GI50 [7]: 1.09 µM; LC50 (50% lethal concentration) [7]: 4.11 µM; TGI [7]: 2120 nM; growth at 10 µM [8]: 3.32%; GI50 [9]: 1300 nM; TGI [9]: 5.11 µM; CC50 [9]: 23.4 µM; GI50 [10]: 0.792 µM; IC50 [10]: 0.79 µM; TGI [10]: 4.33 µM; CC50 [10]: 16 µM; growth at 10 µM [11]: -50.3%; growth at 10 µM [12]: -18.5%; GI50 [13]: 765 nM; LC50 (concentration killing 50% of cells) [13]: 2890 nM; TGI [13]: 1.49 µM; growth at 10 µM [14]: 8.48%; GI50 [15]: 618 nM; IC50 [15]: 620 nM; TGI [15]: 1.65 µM; CC50 [15]: 4.39 µM; GI50 [16]: 624 nM; TGI [16]: 5.27 µM; CC50 [16]: 17.3 µM; growth at 10 µM [17]: 1.17%; growth at 10 µM [18]: -65.6%; GI50 [19]: 724 nM; LC50 (concentration killing 50% of cells) [19]: 12.8 µM; TGI [19]: 2.51 µM; growth at 10 µM [20]: -36%; growth at 10 µM [21]: -63%; GI50 [22]: 853 nM; LC50 (concentration killing 50% of cells) [22]: 2920 nM; TGI [22]: 1580 nM; growth at 10 µM [23]: -10.9%; GI50 [24]: 0.965 µM; TGI [24]: 2.55 µM; CC50 [24]: 10.6 µM; GI50 [25]: 937 nM; LC50 (concentration killing 50% of cells) [25]: 10.7 µM; TGI [25]: 2490 nM; growth at 10 µM [26]: -18.6%; growth at 10 µM [27]: 8.94%; GI50 [28]: 796 nM; LC50 [28]: 3.09 µM; TGI [28]: 1.57 µM; growth at 10 µM [29]: -50.9%; GI50 [30]: 1.03 µM; TGI [30]: 2410 nM; CC50 [30]: 7.16 µM; growth at 10 µM [31]: -28.2%; GI50 [32]: 0.896 µM; LC50 (concentration killing 50% of cells) [32]: 38.2 µM; TGI [32]: 3.55 µM; growth at 10 µM [33]: 5.11%; growth at 10 µM [34]: 2.71%

Q: What does the source list for `O=C(Nc1cccc(-n2cc(-c3ccncc3)c(-c3ccc(Cl)c(O)c3)n2)c1)c1ccc(N2CCOCC2)c(C(F)(F)F)c1`?
A: growth at 10 µM [1]: 73.9%; GI50 [2]: 3260 nM; LC50 (50% lethal concentration) [2]: > 50 µM; TGI [2]: 18.4 µM; growth at 10 µM [3]: 35.2%; GI50 [4]: 2870 nM; TGI [4]: > 50000 nM; CC50 [4]: > 50000 nM; growth at 10 µM [5]: 1.14%; growth at 10 µM [6]: 59.6%; GI50 [7]: 19.4 µM; LC50 (50% lethal concentration) [7]: > 50 µM; TGI [7]: > 50000 nM; growth at 10 µM [8]: 6.29%; GI50 [9]: 1720 nM; TGI [9]: 5.68 µM; CC50 [9]: > 50 µM; GI50 [10]: 15.5 µM; IC50 [10]: 15.5 µM; TGI [10]: > 50 µM; CC50 [10]: > 50 µM; growth at 10 µM [11]: 30.6%; growth at 10 µM [12]: 29.1%; GI50 [13]: 1370 nM; LC50 (concentration killing 50% of cells) [13]: > 50000 nM; TGI [13]: 17.3 µM; growth at 10 µM [14]: 36.6%; GI50 [15]: 1710 nM; IC50 [15]: 1710 nM; TGI [15]: 7.55 µM; CC50 [15]: 37 µM; GI50 [16]: 1920 nM; TGI [16]: > 50 µM; CC50 [16]: > 50 µM; growth at 10 µM [17]: 107%; growth at 10 µM [18]: 49.2%; GI50 [19]: 2310 nM; LC50 (concentration killing 50% of cells) [19]: > 50 µM; TGI [19]: 44 µM; growth at 10 µM [20]: 63.6%; growth at 10 µM [21]: 41.6%; GI50 [22]: > 50000 nM; LC50 (concentration killing 50% of cells) [22]: > 50000 nM; TGI [22]: > 50000 nM; growth at 10 µM [23]: 5.19%; GI50 [24]: 6.3 µM; TGI [24]: 36.8 µM; CC50 [24]: > 50 µM; GI50 [25]: 626 nM; LC50 (concentration killing 50% of cells) [25]: > 50 µM; TGI [25]: 2900 nM; growth at 10 µM [26]: 101%; growth at 10 µM [27]: 81.2%; GI50 [28]: 1500 nM; LC50 [28]: 42.9 µM; TGI [28]: 6.04 µM; growth at 10 µM [29]: 38.9%; GI50 [30]: 5.66 µM; TGI [30]: > 50000 nM; CC50 [30]: > 50 µM; growth at 10 µM [31]: 52.7%; GI50 [32]: 9.42 µM; LC50 (concentration killing 50% of cells) [32]: > 50 µM; TGI [32]: > 50 µM; growth at 10 µM [33]: 82.1%; growth at 10 µM [34]: 60.6%
